A word on the IC50: it is the midpoint of a concentration-inhibition curve. A high value points to lower potency.

For the assay, the target named is T1, HGFR (Homo sapiens, UniProt P08581).
T1 construct: endogenous in cells; host or cells: MKN-45 human gastric cancer cells
T1 sequence (P08581 25-1390): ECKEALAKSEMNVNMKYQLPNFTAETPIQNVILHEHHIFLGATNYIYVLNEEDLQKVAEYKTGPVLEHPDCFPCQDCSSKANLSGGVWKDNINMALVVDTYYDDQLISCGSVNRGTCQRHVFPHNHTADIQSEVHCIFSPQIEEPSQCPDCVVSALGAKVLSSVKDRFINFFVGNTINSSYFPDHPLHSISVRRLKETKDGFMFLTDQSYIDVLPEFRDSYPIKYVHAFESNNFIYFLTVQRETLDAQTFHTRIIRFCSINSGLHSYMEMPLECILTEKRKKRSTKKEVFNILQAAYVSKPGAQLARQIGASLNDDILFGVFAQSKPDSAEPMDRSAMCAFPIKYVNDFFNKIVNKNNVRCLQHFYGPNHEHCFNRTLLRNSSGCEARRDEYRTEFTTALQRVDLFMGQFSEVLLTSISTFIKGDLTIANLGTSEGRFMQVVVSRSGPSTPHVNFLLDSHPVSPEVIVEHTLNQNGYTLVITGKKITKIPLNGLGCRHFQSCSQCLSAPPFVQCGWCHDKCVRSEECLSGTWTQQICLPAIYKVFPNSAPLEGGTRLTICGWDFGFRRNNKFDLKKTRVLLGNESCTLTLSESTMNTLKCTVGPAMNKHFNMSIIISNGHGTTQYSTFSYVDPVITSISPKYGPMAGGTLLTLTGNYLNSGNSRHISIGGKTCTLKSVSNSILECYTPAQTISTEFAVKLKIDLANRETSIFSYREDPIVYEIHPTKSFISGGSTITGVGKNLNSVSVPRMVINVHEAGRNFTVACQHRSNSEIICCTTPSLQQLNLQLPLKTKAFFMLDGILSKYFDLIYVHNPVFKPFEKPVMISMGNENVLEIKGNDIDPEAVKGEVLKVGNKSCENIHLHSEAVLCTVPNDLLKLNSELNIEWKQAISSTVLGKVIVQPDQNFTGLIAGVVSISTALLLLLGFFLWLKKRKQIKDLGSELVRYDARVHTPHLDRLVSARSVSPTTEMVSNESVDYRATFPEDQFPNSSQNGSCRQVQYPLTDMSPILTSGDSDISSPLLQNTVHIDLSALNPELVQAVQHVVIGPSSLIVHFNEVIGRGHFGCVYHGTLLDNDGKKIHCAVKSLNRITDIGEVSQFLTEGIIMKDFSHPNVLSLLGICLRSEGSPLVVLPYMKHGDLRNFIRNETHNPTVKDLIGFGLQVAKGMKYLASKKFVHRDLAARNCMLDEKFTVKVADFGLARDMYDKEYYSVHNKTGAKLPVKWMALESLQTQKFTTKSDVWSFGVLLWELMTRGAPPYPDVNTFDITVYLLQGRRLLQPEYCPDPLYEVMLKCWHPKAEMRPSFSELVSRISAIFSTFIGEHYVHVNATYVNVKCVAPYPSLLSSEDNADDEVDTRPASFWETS
As to the kind of experiment: Inhibitory activity against the HGFR autophosphorylation using ELISA (MKN-45 cells). The class given is cell-based. The conditions noted are these: 1 hr with test substance. The essentials: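 HGFR autophosphorylation measured by sandwich ELISA: anti-phosphotyrosine PY20 capture, anti-HGFR detection, HRP secondary, TMB read at 450 nm. Lysates came from MKN-45 cells given test substance for 1 h at 37° C in 1% FBS RPMI1640. Percent activity normalised between no-compound extract and lysis buffer alone.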
In general terms: In an ELISA, binding on a coated surface is turned into a signal by an enzyme label.
In turn, `COC1CN(C(=O)Nc2cc(Oc3ccc(NC(=O)C4(C(=O)Nc5ccc(F)cc5)CC4)c(F)c3)ccn2)C1` [Example 78, N-[2-Fluoro-4-[(2-{[(3-methoxyazetidin-1-yl)carbonyl]amino}pyridin-4-yl)oxy]phenyl}-N′-(4-fluorophenyl)cyclopropane-1,1-dicarboxamide] yielded an IC50 of 15 nM.

`O=C(Nc1cc(Oc2ccc(NC(=O)C3(C(=O)Nc4ccc(F)cc4)CC3)cc2)ccn1)N1CCN(CCN2CCC2)CC1` [Example 28, N-(4-{[2-({[4-(2-Azetidin-1-ylethyl)piperazin-1-yl]carbonyl}amino)pyridin-4-yl]oxy}phenyl)-N′-(4-fluorophenyl)cyclopropane-1,1-dicarboxamide] registered an IC50 of 43 nM.

Molecule `CN1CC(N2CCN(C(=O)Nc3cc(Oc4ccc(NC(=O)C5(C(=O)Nc6ccc(F)cc6)CC5)c(F)c4)ccn3)CC2)C1` [Example 17] showed an IC50 of 15 nM.

`O=C(Nc1cc(Oc2ccc(NC(=O)C3(C(=O)Nc4ccc(F)cc4)CC3)cc2)ccn1)N1CCC(CN2CCC2)CC1` [Example 27, N-(4-{[2-({f [4-(Azetidin-1-ylmethyl)piperidin-1-yl]carbonyl}amino)pyridin-4-yl]oxy}phenyl)-N′-(4-fluorophenyl)cyclopropane-1,1-dicarboxamide]: half-maximal inhibition (IC50) was put at 32 nM.

On to `CN1CCC(N(C)C(=O)Nc2cc(Oc3ccc(NC(=O)C4(C(=O)Nc5ccccc5F)CC4)c(F)c3)ccn2)CC1` [Example 57, N-(2-Fluoro-4-{[2-({[methyl(1-methylpiperidin-4-yl)amino]carbonyl}amino)pyridin-4-yl]oxy}phenyl)-N′-(2-fluorophenyl)cyclopropane-1,1-dicarboxamide], for which inhibition was half-maximal at 82 nM (IC50).

In the case of `CN(C)[C@H]1CCN(C(=O)Nc2cc(Oc3ccc(NC(=O)C4(C(=O)Nc5ccccc5)CC4)c(F)c3)ccn2)C1` [Example 58, N-(4-{[2-({[(3S)-3-(Dimethylamino)pyrrolidin-1-yl]carbonyl}amino)pyridin-4-yl]oxy}-2-fluorophenyl)-N′-phenylcyclopropane-1,1-dicarboxamide], the IC50 came out at 17 nM.

The molecule `CN(C)CCN1CCN(C(=O)Nc2cc(Oc3ccc(NC(=O)C4(C(=O)Nc5ccc(F)cc5)CC4)c(F)c3)ccn2)CC1` [Example 2, N-[4-({2-[({4-[2-(Dimethylamino)ethyl]piperazin-1-yl}carbonyl)amino]pyridin-4-yl}oxy)-2-fluorophenyl]-N′-(4-fluorophenyl)cyclopropane-1,1-dicarboxamide] gave an IC50 of 21 nM.

With `O=C(Nc1cc(Oc2ccc(NC(=O)C3(C(=O)Nc4ccc(F)cc4)CC3)c(F)c2)ccn1)N1CCC(N2CCC2)CC1` [Example 9, N-{4-[(2-{[(4-Azetidin-1-ylpiperidin-1-yl)carbonyl]amino}pyridin-4-yl)oxy]-2-fluorophenyl}-N′-(4-fluorophenyl)cyclopropane-1,1-dicarboxamide], the concentration for half-maximal inhibition (IC50) was 11 nM.

`O=C(Nc1cc(Oc2ccc(NC(=O)C3(C(=O)Nc4ccc(F)cc4)CC3)cc2)ccn1)N1CCOCC1` [Example 68, N-(4-Fluorophenyl)-N′-[4-({2-[(morpholin-4-ylcarbonyl)amino]pyridin-4-yl}oxy)phenyl]cyclopropane-1,1-dicarboxamide] registered an IC50 of 71 nM.

(Values after patent US7855290B2, “Pyridine derivatives and pyrimidine derivatives (3)” (Eisai R&D Management Co., Ltd., priority 2005, dated 2010).)
